According to PMC7533037, “Purification, structural analysis, and stability of antioxidant peptides from purple wheat bran” (BMC Chemistry, 2020):
Residues, ends and D or L forms follow the SMILES beside them. No end group written: not given here.

How the values were obtained:
pepsin = experiment: In vitro digestion stability, pepsin; assay type: in vitro ADME; conditions: simulated gastrointestinal digestion, compared with before digestion, peptide 0.5 mg/mL (TEAC), 1.0 mg/mL (superoxide), n = 3
Excerpt: (§1) According to the main components of human gastrointestinal digestive juice and digestive environment, a human gastrointestinal digestion simulation system was established to study the antioxidant activity changes of peptides after digestion by human gastrointestinal digestion simulation system. The method was according to the previously reported by Jang et al..
(§2) Peptides 2 and 4 synthesized in this study might be better antioxidants than the other peptides because of their high resistance to superoxide anion radical and high TEACs (Fig. 5) (P < 0.05). The peptide concentrations for the determination of superoxide anion radical scavenging activity and TEAC in the stability study (3.5 and 3.6) were chosen to be 1.0 and 0.5 mg/mL, respectively, according to the experimental results.

trypsin = experiment: In vitro digestion stability, trypsin; assay type: in vitro ADME; conditions: simulated gastrointestinal digestion, compared with before digestion, peptide 0.5 mg/mL (TEAC), 1.0 mg/mL (superoxide), n = 3
Excerpt: as §1, §2

chymotrypsin = experiment: In vitro digestion stability, chymotrypsin; assay type: in vitro ADME; conditions: simulated gastrointestinal digestion, individually or continuously, compared with before digestion, peptide 0.5 mg/mL (TEAC), 1.0 mg/mL (superoxide), n = 3
Excerpt: as §1, §2

[1] = Temperature stability of antioxidant activity; assay type: physicochemical; conditions: compared with the three other peptides; read-out superoxide scavenging and TEAC
Experimental: The antioxidant activities of purple wheat bran antioxidant peptides at different passivation temperatures for 60 min were studied. The detection method of antioxidant activities was shown in 2.4. Before the antioxidant activities were measured, the samples allowed to cool to room temperature (25 °C) and pH was adjusted to 7.0.
as §2

[2] = Superoxide anion radical scavenging activity assay (pyrogallol autoxidation method); assay type: biochemical; conditions: synthesized peptides, Tris-HCl pH 8.3, 320 nm, n = 3
Experimental: Superoxide anion radical scavenging activity assay was measured using the pyrogallol autoxidation method with some modifications. Mix 1.6 mL of sample with an equal volume of 50 mM Tris–HCl buffer (pH 8.3). The mixture was incubated in a bath for 20 min, then 0.8 mL of 1.5 mM pyrogallic acid was added. Absorbance of the mixture was measured at 320 nm every 30 s for 5 min. For blank, 1.6 mL of Tris–HCl buffer was used instead of sample. Ascorbic acid and GSH were used as positive controls. Superoxide anion radical scavenging activity was calculated as: O2-clearancerate%=1-ΔODS/ΔODb×100%, Where,ΔODSandΔODb represented slope of absorbance line for sample and slope of absorbance line for blank.

[3] = Trolox equivalent antioxidant capacity (TEAC), ABTS radical scavenging; assay type: biochemical; conditions: synthesized peptides; PBS pH 7.4, 30 °C, 30 min, 734 nm; n = 3
Experimental: The experiment referred to methods of Costa and Xing and made appropriate modifications. This method used Trolox as the standard antioxidant and all reagents were prepared in 50 mmol/L phosphate buffered solution (pH 7.4). The specific operation was as follows: PBS (50 µL) solution (blank group), different concentrations of Trolox solution (standard control group) and sample solution to be tested (sample group) were added to a transparent 96-well microplate, and then 150 µL ABTS^+· was quickly added. The solution was shaken at 30 °C for 30 min and its absorbance was measured at 734 nm using a microplate scanning spectrophotometer (Multiskan FC, Thermo Fisher Scientific (Shanghai), China). ABTS radical scavenging activity was calculated as ABTS+·clearancerate%=1-ASample/ABlank×100

| TEAC and superoxide anion radical scavenging activity after digestion by pepsin (pepsin) | TEAC and superoxide anion radical scavenging activity after digestion by trypsin (trypsin) | TEAC and superoxide anion radical scavenging activity after digestion by chymotrypsin (chymotrypsin) | temperature stability (overall) [1] | Molecule | IC50, superoxide anion radical scavenging [2] [µg/mL] | IC50, TEAC (ABTS radical scavenging) [3] [µg/mL] |
| --- | --- | --- | --- | --- | --- | --- |
| insignificant changes | significantly declined | significant reduction |  | N=C(N)NCCC[C@H](N)C(=O)N[C@@H](CC(N)=O)C(=O)N[C@@H](Cc1ccccc1)C(=O)O [peptide 3, Arg-Asn-Phe] (H-Arg-Asn-Phe-OH) |  |  |
| remained at the same levels | remained at the same levels | remained at the same levels | better temperature stability | C[C@H](NC(=O)[C@@H](N)CCC(N)=O)C(=O)N[C@@H](CS)C(=O)O [peptide 2, Gln-Ala-Cys] (H-Gln-Ala-Cys-OH) |  |  |
| remained at the same levels | remained at the same levels | remained at the same levels | better temperature stability | N[C@@H](CO)C(=O)N[C@@H](CO)C(=O)N[C@@H](CS)C(=O)O [peptide 4, Ser-Ser-Cys] (H-Ser-Ser-Cys-OH) |  |  |
| insignificant changes |  | significant reduction |  | N[C@@H](Cc1c[nH]c2ccccc12)C(=O)N[C@@H](Cc1ccccc1)C(=O)O [peptide 5, Trp-Phe] (H-Trp-Phe-OH) |  |  |

| Molecule | TEAC and superoxide anion radical scavenging activity after digestion by pepsin (pepsin) | TEAC and superoxide anion radical scavenging activity after digestion by trypsin (trypsin) | TEAC and superoxide anion radical scavenging activity after digestion by chymotrypsin (chymotrypsin) | temperature stability (overall) [1] | IC50, superoxide anion radical scavenging [2] [µg/mL] | IC50, TEAC (ABTS radical scavenging) [3] [µg/mL] |
| --- | --- | --- | --- | --- | --- | --- |
| CGFPGHC (cysteine pairing not given here) [peptide 1, antioxidant peptide identified in F4-4 of purple wheat bran protein hydrolysate, synthesized by Fmoc solid phase method] | insignificant changes |  | significant reduction |  | 2898 | 763 |
